Laboratory results as given in paper PMC8010149, “A Therapeutic Strategy to Combat HIV-1 Latently Infected Cells With a Combination of Latency-Reversing Agents Containing DAG-Lactone PKC Activators” (Frontiers in Microbiology, 2021).

Tests used:
[1] = tested on: HIV-1 latently infected ACH-2 cells; assay: Intracellular HIV-1 p24 by flow cytometry in ACH-2 cells; format: cell-based; details: 24 h
Protocol: (§1) The reactivation of HIV-1 from latently infected cells was determined by intracellular p24 protein expression and quantification of p24 antigen in the supernatant (ACH-2 and U1 cells), or by changes in intracellular green fluorescent protein (GFP) expression (J-Lat 10.6 cells). J-Lat ([Jordan et al., 2003]), ACH-2, or U1 cells (5 × 10^5 cells/ml) were seeded in 96-well plates and incubated with different drug concentrations for 24 h to collect the cells. The supernatant was collected after 48 h. The increase in supernatant p24 antigen levels was measured using a Lumipulse G1200 (FUJIREBIO, Tokyo, Japan). J-Lat cells (5 × 10^5 cells/ml) were placed in 48-well plates and incubated with different drug concentrations for 24 h. Intracellular p24 protein expression and GFP-positive cells were analyzed by flow cytometry.
(§2) The amount of intracellular HIV-1 p24 and the active form of caspase-3 were determined by flow cytometry, as previously described ([Matsuda et al., 2015], [2019]). In brief, ACH-2 and U1 cells (2.5 × 10^5 cells/ml) were fixed with 1% paraformaldehyde/PBS for 20 min and permeabilized with Flow Cytometry Perm Buffer (TONBO Biosciences, San Diego, CA, United States). After 5 min of incubation at room temperature, the cells were stained with FITC anti-HIV-1 p24 (24-4) monoclonal antibody (mAb; Santa Cruz Biotechnology, Dallas, TX, United States) or Alexa Fluor 647-conjugated anti-active caspase-3 (C92-605) mAb (BD Pharmingen, San Diego, CA, United States) for 30 min on ice. For T cell activation and exhaustion marker staining, PBMCs from healthy donors separated by the above density gradient centrifugation method were incubated with fixable viability stain Ghost Dye 780 (TONBO Biosciences) for 30 min on ice. The cells were then stained with Brilliant Violet 510 anti-human CD3 (UCHT1) mAb (BioLegend), FITC anti-human CD4 (RPA-T4) mAb (TONBO Biosciences), PE-Cy7 anti-human CD8a (RPA-T8) mAb (TONBO Biosciences), PerCP-Cy5.5 anti-human CD38 (HB-7) mAb (BioLegend), PE anti-human CD69 (FN50) mAb (BioLegend), or Alexa Fluor 647 anti-human CD279/PD-1 (EH12.1) mAb (BD Biosciences, San Jose, CA, United States) for 30 min on ice. Next, the cells were analyzed using BD FACSVerse (BD Biosciences). In the analysis, unstained cells were used as a negative control to set the gating for each experiment. The collected data were analyzed using FlowJo software (Tree Star, San Carlos, CA, United States).

U937 cells = assay: Active caspase-3 by flow cytometry in U937 cells; format: cell-based; details: 10 μM, 24 h
[2] = tested on: HIV-1 latently infected ACH-2 cells; assay: HIV-1 latency reversal, p24 antigen in supernatant, ACH-2 cells; format: cell-based; details: Human immunodeficiency virus 1, ACH-2, 48 h
Protocol: as §1

[3] = tested on: HIV-1 latently infected U1 cells; assay: Intracellular HIV-1 p24 by flow cytometry in U1 cells; format: cell-based; details: 24 h
Protocol: as §1, §2

[4] = tested on: HIV-1 in CD4+ T cells from HIV-1-infected individuals; assay: Ex vivo reactivation, intracellular HIV-1 mRNA in primary CD4+ T cells from HIV-1-infected individuals; format: cell-based; details: 10 μM YSE028, 24 h, seven individuals
Protocol: Primary cells were isolated from seven HIV-1^+ individuals, and ex vivo reactivation experiments were conducted as previously described ([Matsuda et al., 2019]). In brief, peripheral blood samples were collected from HIV-1-infected participants receiving cART for at least 5 years (Table 1). All subjects maintained a low viral load (<20 copies/ml, except for occasional “blips”) during therapy. CD4^+ T cell counts in peripheral blood samples ranged from 477 to 992 cells/mm^3 (average: 631 cells/mm^3), and plasma viral loads were <20 copies/ml (except for one participant whose viral load was 22 copies/ml) as measured by quantitative PCR (qPCR; COBAS AmpliPrep/COBAS TaqMan HIV-1 Test version 2.0; Roche Diagnostics, Basel, Switzerland) at the time of study enrollment. The Ethics Committee at the National Center for Global Health and Medicine approved this study (NCGM-G-002259-00), and each patient provided written informed consent. […] The number of HIV-1 RNA copies was calculated using a standard curve obtained from serially diluted HIV-1pNL4-3 plasmid, and normalized values [HIV-1 RNA copies/input RNA (ng)] for each drug were compared to those without drug treatment. The relative increase in HIV-1 RNA levels in the presence of each drug or combination was then determined.

ACH-2 cells = assay: Active caspase-3 by flow cytometry in ACH-2 cells; format: cell-based; details: 10 µM, 24 h
Protocol: as §2, with “The cells were then stained with Brilliant Violet 510 anti-human CD3 (UCHT1) mAb (BioLegend), FITC anti-human CD4 (RPA-T4) mAb (TONBO Biosciences), PE-Cy7 anti-human CD8a (RPA-T8) mAb (TONBO Biosciences), PerCP-Cy5.5 anti-human CD38 (HB-7) mAb (BioLegend), PE anti-human CD69 (FN50) mAb (BioLegend), or Alexa Fluor 647 anti-human CD279/PD-1 (EH12.1) mAb (BD Biosciences, San Jose, CA, United States) for 30 min on ice.” left out, “In the analysis, unstained cells were used as a negative control to set the gating for each experiment.” left out

[5] = tested on: CD4+ or CD8+ primary T cells; assay: T cell activation, CD69 expression on CD4+ or CD8+ primary T cells; format: cell-based, human; details: 1 μM, 24 h, compared to prostratin and PEP005
Protocol: as §2, with “The cells were then stained with Brilliant Violet 510 anti-human CD3 (UCHT1) mAb (BioLegend), FITC anti-human CD4 (RPA-T4) mAb (TONBO Biosciences), PE-Cy7 anti-human CD8a (RPA-T8) mAb (TONBO Biosciences), PerCP-Cy5.5 anti-human CD38 (HB-7) mAb (BioLegend), PE anti-human CD69 (FN50) mAb (BioLegend), or Alexa Fluor 647 anti-human CD279/PD-1 (EH12.1) mAb (BD Biosciences, San Jose, CA, United States) for 30 min on ice.” left out, “In the analysis, unstained cells were used as a negative control to set the gating for each experiment.” left out

For `CCCC(CCC)C(=O)OCC1(CO)CC(=C(C)C)C(=O)O1` (centres unmarked) [YSE028], the “intracellular p24-positive live cells (flow cytometry quadrant)” value (from here on “intracellular p24-positive live cells”) ([1]; 0.1 µM) was 0.889, the “intracellular p24-positive live cells” value ([1]; 1 µM) was 62 and the “intracellular p24-positive live cells” value ([1]; 10 µM) was 79.1. For the same compound, the caspase-3 activation (U937 cells) was 6.35%, the EC50 [2] was 0.87 µM and the “intracellular p24-positive live cells” value ([3]; 0.1 µM) was 0.239. For the same compound, the “intracellular p24-positive live cells” value ([3]; 1 µM) was 1.13, the “intracellular p24-positive live cells” value ([3]; 10 µM) was 36.3 and the “HIV-1 mRNA compared to no drug control” value [4] was 1.66 fold. The caspase-3 activation (ACH-2 cells) was 17.85% and the “CD69+ cells in primary T cells (global T cell activation)” value [5] was “less effect”.
